Source: patent US7297353B2, “Use of anemonin for treating aseptic inflammations” (priority 2000, dated 2007)
Several values for one entry are separate records, joined by “and”; a condition that tells them apart may be missing. Equal entries are not always repeated.

Tests used:
injured skin = experiment: Effect of anemonin on the injured skin in mice (visual irritation score); assay type: in vivo, ICR mice; design: Irritation Score: scale not given here
Protocol: ICR mice were utilized for the studies. The dorsal hair of mice was cut and injured 24 hour before experiment. 25% ethanol (0.5 ml) and the liniment solution of anemonin (0.05, 0.5, 5 mg/ml, 0.5 ml) were coated 4 h a day for 7 days on the area of hairless which was 2×2 cm^2 per mice. The skin irritation was evaluated by visual scoring (Table C-3 and C-4) everyday. The mice were continuously observed for 7 days after stopping applying. […] The injured skin of application 0.5 mg/ml anemonin also healed up within 7 days.

[1] = In vitro percutaneous penetration velocity of anemonin; assay type: in vitro ADME; design: steady penetration velocity into derma: unit not given here; settings: for Js: steady penetration velocity / Q24: cumulative amount of percutaneous penetration medicament per square centimeter for 24 hours / Tlag: time lag: n = 3
[2] = 0.5 mg/ml on injured skin, Day 6, Treatment
[3] = 0.5 mg/ml on injured skin, Day 7, Treatment
[4] = 0.5 mg/ml on injured skin, Day 8, Observation
[5] = 0.5 mg/ml on injured skin, Day 9, Observation
[6] = 0.5 mg/ml on injured skin, Day 10, Observation
[7] = 0.5 mg/ml on injured skin, Day 11, Observation
[8] = 0.5 mg/ml on injured skin, Day 12, Observation
[9] = 0.5 mg/ml on injured skin, Day 13, Observation
[10] = 0.5 mg/ml on injured skin, Day 14, Observation
[11] = 5 mg/ml on injured skin, Day 2, Treatment
[12] = 5 mg/ml on injured skin, Day 3, Treatment
[13] = 5 mg/ml on injured skin, Day 4, Treatment
[14] = 5 mg/ml on injured skin, Day 5, Treatment
[15] = 5 mg/ml on injured skin, Day 6, Treatment
[16] = 5 mg/ml on injured skin, Day 7, Treatment
[17] = 5 mg/ml on injured skin, Day 8, Observation
[18] = 5 mg/ml on injured skin, Day 9, Observation
[19] = 5 mg/ml on injured skin, Day 10, Observation
[20] = 5 mg/ml on injured skin, Day 11, Observation
[21] = 5 mg/ml on injured skin, Day 12, Observation
[22] = 5 mg/ml on injured skin, Day 13, Observation
[23] = 5 mg/ml on injured skin, Day 14, Observation

SMILES: O=C1C=CC2(CCC23C=CC(=O)O3)O1 (stereo not shown) [Anemonin, anemonin]
- Irritation Grade (injured skin; [2]): No (No irritation <0.5)
- Irritation Score (injured skin; [2]): 0
- Irritation Grade (injured skin; [3]): No (No irritation <0.5)
- Irritation Score (injured skin; [3]): 0
- Irritation Grade (injured skin; [4]): No (No irritation <0.5)
- Irritation Score (injured skin; [4]): 0
- Irritation Grade (injured skin; [5]): No (No irritation <0.5)
- Irritation Score (injured skin; [5]): 0
- Irritation Grade (injured skin; [6]): No (No irritation <0.5)
- Irritation Score (injured skin; [6]): 0
- Irritation Grade (injured skin; [7]): No (No irritation <0.5)
- Irritation Score (injured skin; [7]): 0
- Irritation Grade (injured skin; [8]): No (No irritation <0.5)
- Irritation Score (injured skin; [8]): 0
- Irritation Grade (injured skin; [9]): No (No irritation <0.5)
- Irritation Score (injured skin; [9]): 0
- Irritation Grade (injured skin; [10]): No (No irritation <0.5)
- Irritation Score (injured skin; [10]): 0
- Irritation Grade (injured skin; 5 mg/ml on injured skin, Day 1, Treatment): Moderate (Moderate irritation <6.0)
- Irritation Grade (injured skin; [11]): Moderate (Moderate irritation <6.0)
- Irritation Score (injured skin; [11]): 3.4
- Irritation Grade (injured skin; [12]): Moderate (Moderate irritation <6.0)
- Irritation Score (injured skin; [12]): 3.3
- Irritation Grade (injured skin; [13]): Moderate (Moderate irritation <6.0)
- Irritation Score (injured skin; [13]): 3.3
- Irritation Grade (injured skin; [14]): Moderate (Moderate irritation <6.0)
- Irritation Score (injured skin; [14]): 3.3
- Irritation Grade (injured skin; [15]): Moderate (Moderate irritation <6.0)
- Irritation Score (injured skin; [15]): 4
- Irritation Grade (injured skin; [16]): Moderate (Moderate irritation <6.0)
- Irritation Score (injured skin; [16]): 4
- Irritation Grade (injured skin; [17]): Moderate (Moderate irritation <6.0)
- Irritation Score (injured skin; [17]): 4
- Irritation Grade (injured skin; [18]): Moderate (Moderate irritation <6.0)
- Irritation Score (injured skin; [18]): 4
- Irritation Grade (injured skin; [19]): Moderate (Moderate irritation <6.0)
- Irritation Score (injured skin; [19]): 3.5
- Irritation Grade (injured skin; [20]): Moderate (Moderate irritation <6.0)
- Irritation Score (injured skin; [20]): 3
- Irritation Grade (injured skin; [21]): Moderate (Moderate irritation <6.0)
- Irritation Score (injured skin; [21]): 2.5
- Irritation Grade (injured skin; [22]): Mild (Mide irritation <2.09)
- Irritation Score (injured skin; [22]): 2
- Irritation Grade (injured skin; [23]): Mild (Mide irritation <2.09)
- Irritation Score (injured skin; [23]): 2
- Irritation Score (injured skin; 5 mg/ml, 0.5 ml, 4 h a day for 7 days on injured skin, Day 1, Treatment): 3.1
- irritation on injured skin (injured skin; application of 0.05 mg/ml): did not cause any irritation
- irritation on injured skin (injured skin; application of 0.5 mg/ml, after 24 h application, then began to alleviate): slight erythema
- irritation on injured skin (injured skin; application of 5 mg/ml): mild to moderate erythema
- ER: increased permeation times ([1]; 30% ethanol solution): 2.0
- Js: steady penetration velocity ([1]; 30% ethanol solution): 4.65 ± 0.47 μg · cm^−2 · h^−1
- Q24: cumulative amount of percutaneous penetration medicament per square centimeter for 24 hours ([1]; 30% ethanol solution): 104.45 ± 12.58 μg · cm^−2
- Tlag: time lag ([1]; 30% ethanol solution): 1.09 ± 0.20 h
- steady penetration velocity into derma ([1]; 30% of ethanol): 4.65
- ER: increased permeation times ([1]; water-saturated solution): 1.0
- Js: steady penetration velocity ([1]; water-saturated solution): 2.28 μg · cm^−2 · h^−1 and 2.28 ± 0.39 μg · cm^−2 · h^−1
- Q24: cumulative amount of percutaneous penetration medicament per square centimeter for 24 hours ([1]; water-saturated solution): 50.49 ± 6.48 μg · cm^−2
- Tlag: time lag ([1]; water-saturated solution): 2.05 ± 0.74 h
